Source: the NIST ThermoML archive (doi:10.1016/j.fluid.2012.11.005)

Test: excess molar enthalpy (molar enthalpy of mixing); xn = mol fraction of the nth substance listed
Conditions: 101 kPa, Liquid, Flow calorimetry

CCCCCCC [heptane] + CCCCCO
x2 = 0
Conditions	excess molar enthalpy [kcal/mol]
298.15 K	0
313.15 K	0

CCCCCO [pentan-1-ol] + CC(C)CC(C)(C)C
excess molar enthalpy [kcal/mol]
Conditions	298.15 K	313.15 K
x1 = 0.0508	0.0899	–
x1 = 0.051	–	0.124
x1 = 0.0999	0.112	–
x1 = 0.1003	–	0.155
x1 = 0.1501	0.126	–
x1 = 0.1506	–	0.174
x1 = 0.2008	0.137	–
x1 = 0.2019	–	0.187
x1 = 0.25	0.143	–
x1 = 0.2512	–	0.194
x1 = 0.2999	0.148	–
x1 = 0.3012	–	0.199
x1 = 0.3516	0.148	–
x1 = 0.3517	–	0.2
x1 = 0.4025	0.147	–
x1 = 0.4026	–	0.199
x1 = 0.4514	0.145	0.194
x1 = 0.5025	0.139	–
x1 = 0.5026	–	0.187
x1 = 0.5516	0.131	–
x1 = 0.5517	–	0.177
x1 = 0.6025	0.121	–
x1 = 0.6026	–	0.164
x1 = 0.6513	0.109	0.148
x1 = 0.7015	0.0951	–
x1 = 0.7016	–	0.13
x1 = 0.7512	0.0802	–
x1 = 0.7513	–	0.11
x1 = 0.8003	0.064	0.088
x1 = 0.8503	0.048	0.0654
x1 = 0.9008	0.0311	0.0423
x1 = 0.9503	0.0147	0.0205
x1 = 1	0	0

CC(C)CC(C)(C)C [2,2,4-trimethylpentane] + CCCCCO
x2 = 0
Conditions	excess molar enthalpy [kcal/mol]
298.15 K	0
313.15 K	0

CCCCCO [pentan-1-ol] + CCCCCCC
excess molar enthalpy [kcal/mol]
Conditions	298.15 K	313.15 K
x1 = 0.0484	–	0.113
x1 = 0.0563	0.088	–
x1 = 0.0981	–	0.148
x1 = 0.1109	0.111	–
x1 = 0.149	–	0.165
x1 = 0.1664	0.125	–
x1 = 0.1985	–	0.177
x1 = 0.2203	0.134	–
x1 = 0.2491	–	0.187
x1 = 0.2749	0.141	–
x1 = 0.2983	–	0.19
x1 = 0.3279	0.145	–
x1 = 0.3483	–	0.192
x1 = 0.3793	0.146	–
x1 = 0.3991	–	0.186
x1 = 0.4314	0.144	–
x1 = 0.4484	–	0.186
x1 = 0.4818	0.139	–
x1 = 0.4984	–	0.177
x1 = 0.5328	0.131	–
x1 = 0.5488	–	0.166
x1 = 0.5822	0.122	–
x1 = 0.5977	–	0.159
x1 = 0.6281	0.11	–
x1 = 0.6489	–	0.144
x1 = 0.6765	0.0984	–
x1 = 0.7003	–	0.124
x1 = 0.7235	0.0849	–
x1 = 0.7483	–	0.106
x1 = 0.7725	0.071	–
x1 = 0.7981	–	0.0845
x1 = 0.8182	0.0576	–
x1 = 0.8497	–	0.0637
x1 = 0.8643	0.0427	–
x1 = 0.8995	–	0.042
x1 = 0.9104	0.0282	–
x1 = 0.9491	–	0.0196
x1 = 0.9552	0.0138	–
x1 = 1	0	0
